Test results as given in the NIST ThermoML archive (doi:10.1021/je900210h).
“And” between values parts separate entries of the source, which are not always exact repeats. Identical values can stand only once.

Conditions: Fluid (supercritical or subcritical phases), Coaxial cylinder method

FCC(F)(F)F [1,1,1,2-tetrafluoroethane]
Conditions	thermal conductivity
299.29 K, 170 kPa	0.01287 W/m/K
299.63 K, 170 kPa	0.01279 W/m/K
318.97 K, 740 kPa	0.01489 W/m/K and 0.01486 W/m/K
319.14 K, 160 kPa	0.0146 W/m/K
345.58 K, 180 kPa	0.01711 W/m/K
346.36 K, 180 kPa	0.01739 W/m/K
348.54 K, 180 kPa	0.01732 W/m/K
351.84 K, 640 kPa	0.01763 W/m/K
363.88 K, 180 kPa	0.01891 W/m/K
365 K, 180 kPa	0.01891 W/m/K
365.41 K, 180 kPa	0.01893 W/m/K
365.69 K, 180 kPa	0.01893 W/m/K
366.52 K, 180 kPa	0.01892 W/m/K
366.8 K, 180 kPa	0.01893 W/m/K
372.42 K, 680 kPa	0.01975 W/m/K
372.43 K, 170 kPa	0.01968 W/m/K
372.43 K, 680 kPa	0.01965 W/m/K
374.18 K, 4090 kPa	0.0729 W/m/K
374.19 K, 4100 kPa	0.0708 W/m/K
374.21 K, 4120 kPa	0.068 W/m/K
374.22 K, 4142 kPa	0.0659 W/m/K
374.22 K, 4149 kPa	0.0654 W/m/K
374.23 K, 4187 kPa	0.0642 W/m/K
374.28 K, 4085 kPa	0.141 W/m/K
374.31 K, 4090 kPa	0.1233 W/m/K
374.32 K, 4093 kPa	0.1139 W/m/K
374.34 K, 4097 kPa	0.1057 W/m/K
374.36 K, 4100 kPa	0.0993 W/m/K
374.37 K, 4073 kPa	0.1974 W/m/K
374.37 K, 4074 kPa	0.1974 W/m/K
374.37 K, 4245 kPa	0.0643 W/m/K
374.37 K, 4270 kPa	0.0643 W/m/K
374.37 K, 4358 kPa	0.0641 W/m/K
374.38 K, 4078 kPa	0.1828 W/m/K
374.38 K, 4083 kPa	0.1742 W/m/K
374.38 K, 4105 kPa	0.0914 W/m/K
374.39 K, 4070 kPa	0.1644 W/m/K
374.4 K, 4110 kPa	0.0851 W/m/K
374.47 K, 4071 kPa	0.1096 W/m/K
374.5 K, 4533 kPa	0.0637 W/m/K
374.51 K, 4621 kPa	0.0635 W/m/K
374.52 K, 4710 kPa	0.0617 W/m/K
374.52 K, 4759 kPa	0.061 W/m/K
374.54 K, 4072 kPa	0.0831 W/m/K
374.57 K, 4073 kPa	0.0764 W/m/K
374.61 K, 4068 kPa	0.0674 W/m/K
374.66 K, 4063 kPa	0.0593 W/m/K
374.72 K, 4049 kPa	0.0529 W/m/K
374.76 K, 3717 kPa	0.0352 W/m/K
374.89 K, 4035 kPa	0.0494 W/m/K
374.92 K, 3675 kPa	0.0342 W/m/K
374.96 K, 4117 kPa	0.1232 W/m/K
374.96 K, 4119 kPa	0.1244 W/m/K
374.96 K, 4126 kPa	0.1244 W/m/K
374.97 K, 4112 kPa	0.1176 W/m/K
374.97 K, 4132 kPa	0.1198 W/m/K
374.99 K, 4107 kPa	0.1106 W/m/K
374.99 K, 10033 kPa	0.064 W/m/K
375 K, 4149 kPa	0.101 W/m/K
375.01 K, 8053 kPa	0.0615 W/m/K
375.03 K, 4099 kPa	0.091 W/m/K
375.03 K, 4155 kPa	0.091 W/m/K
375.03 K, 6045 kPa	0.0576 W/m/K
375.04 K, 888 kPa	0.0235 W/m/K
375.04 K, 4160 kPa	0.0861 W/m/K
375.06 K, 4168 kPa	0.0796 W/m/K
375.07 K, 4097 kPa	0.0773 W/m/K
375.1 K, 3544 kPa	0.0321 W/m/K
375.1 K, 3981 kPa	0.0428 W/m/K
375.1 K, 4185 kPa	0.0704 W/m/K
375.11 K, 4099 kPa	0.0671 W/m/K
375.13 K, 4199 kPa	0.0643 W/m/K
375.14 K, 3928 kPa	0.0409 W/m/K
375.14 K, 4132 kPa	0.1072 W/m/K
375.14 K, 4134 kPa	0.108 W/m/K
375.14 K, 4136 kPa	0.108 W/m/K
375.14 K, 4138 kPa	0.108 W/m/K
375.14 K, 4140 kPa	0.108 W/m/K
375.14 K, 4142 kPa	0.1072 W/m/K
375.14 K, 4144 kPa	0.1063 W/m/K
375.14 K, 4216 kPa	0.0612 W/m/K
375.15 K, 4130 kPa	0.1055 W/m/K
375.15 K, 4146 kPa	0.1047 W/m/K
375.15 K, 4148 kPa	0.1024 W/m/K
375.16 K, 4150 kPa	0.1009 W/m/K
375.16 K, 4153 kPa	0.0988 W/m/K
375.16 K, 4244 kPa	0.0586 W/m/K
375.17 K, 4157 kPa	0.0941 W/m/K
375.17 K, 4289 kPa	0.0565 W/m/K
375.18 K, 4030 kPa	0.0479 W/m/K
375.18 K, 4160 kPa	0.0916 W/m/K
